Article PMC9762201 (Current Research in Pharmacology and Drug Discovery, 2022)
“Also recorded” adds a separate entry of the source.

How the values were obtained:
α1A-AR [1] = assay: cAMP assay and PAM assay in Rat-1 fibroblasts expressing α1A-AR; format: cell-based; conditions: for PAM activity (NE-mediated cAMP potentiation, PAM assay): NE 10^−4 M held constant, compound dose-response; for intrinsic (basal) agonist activity, cAMP: compound alone, dose-response
α1A-AR [2] = biological target: T1, α1A-AR (Homo sapiens, UniProt P35348); assay: Total inositol phosphate assay in Rat-1 fibroblasts expressing α1A-AR; format: cell-based; conditions: for intrinsic (basal) agonist activity, inositol phosphate: compound alone, dose-response
T1 sequence (P35348 1-466): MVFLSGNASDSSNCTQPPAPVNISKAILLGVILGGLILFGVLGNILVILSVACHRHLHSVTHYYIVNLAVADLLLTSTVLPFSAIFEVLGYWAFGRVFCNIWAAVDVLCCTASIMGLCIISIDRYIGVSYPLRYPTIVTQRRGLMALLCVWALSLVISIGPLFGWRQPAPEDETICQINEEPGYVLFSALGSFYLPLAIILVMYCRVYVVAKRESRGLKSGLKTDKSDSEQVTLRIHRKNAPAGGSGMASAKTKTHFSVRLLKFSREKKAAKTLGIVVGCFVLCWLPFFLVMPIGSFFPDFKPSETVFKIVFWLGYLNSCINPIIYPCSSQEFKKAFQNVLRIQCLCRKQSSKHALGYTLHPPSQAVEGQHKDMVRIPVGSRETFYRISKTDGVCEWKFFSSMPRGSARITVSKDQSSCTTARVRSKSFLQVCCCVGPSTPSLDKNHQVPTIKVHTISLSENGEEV

α1A-AR [3] = biological target: T1, α1A-AR; format: binding; conditions: for extent of inhibition of 125I-HEAT binding at α1A-AR: 0.5 mM GTP
α1D-AR = biological target: T2, α1D-AR (Homo sapiens, UniProt P25100); format: binding; conditions: 0.5 mM GTP
T2 sequence (P25100 1-572): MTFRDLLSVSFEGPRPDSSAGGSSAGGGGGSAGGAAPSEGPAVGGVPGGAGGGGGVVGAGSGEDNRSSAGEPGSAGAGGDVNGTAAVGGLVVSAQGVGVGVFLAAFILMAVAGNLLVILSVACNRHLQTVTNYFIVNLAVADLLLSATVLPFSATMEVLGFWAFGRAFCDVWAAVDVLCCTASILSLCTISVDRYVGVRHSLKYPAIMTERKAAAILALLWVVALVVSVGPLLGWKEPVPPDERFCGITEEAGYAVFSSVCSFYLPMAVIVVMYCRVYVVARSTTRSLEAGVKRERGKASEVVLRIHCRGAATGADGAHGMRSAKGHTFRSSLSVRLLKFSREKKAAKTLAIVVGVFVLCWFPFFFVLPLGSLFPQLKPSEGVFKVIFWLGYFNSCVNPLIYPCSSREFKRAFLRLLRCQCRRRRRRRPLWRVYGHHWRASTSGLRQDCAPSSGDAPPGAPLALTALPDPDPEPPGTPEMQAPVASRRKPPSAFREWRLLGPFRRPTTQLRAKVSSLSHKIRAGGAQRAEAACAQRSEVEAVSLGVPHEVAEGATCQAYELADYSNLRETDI

α1B-AR = format: binding; conditions: 0.5 mM GTP
α1A-AR [4] = biological target: T1, α1A-AR; conditions: ref Hwa et al., 1995; cited from earlier work
α2A-AR = biological target: T3, α2A-AR (Homo sapiens, UniProt P08913); format: binding; conditions: Cos-1 membranes
T3 sequence (P08913 1-465): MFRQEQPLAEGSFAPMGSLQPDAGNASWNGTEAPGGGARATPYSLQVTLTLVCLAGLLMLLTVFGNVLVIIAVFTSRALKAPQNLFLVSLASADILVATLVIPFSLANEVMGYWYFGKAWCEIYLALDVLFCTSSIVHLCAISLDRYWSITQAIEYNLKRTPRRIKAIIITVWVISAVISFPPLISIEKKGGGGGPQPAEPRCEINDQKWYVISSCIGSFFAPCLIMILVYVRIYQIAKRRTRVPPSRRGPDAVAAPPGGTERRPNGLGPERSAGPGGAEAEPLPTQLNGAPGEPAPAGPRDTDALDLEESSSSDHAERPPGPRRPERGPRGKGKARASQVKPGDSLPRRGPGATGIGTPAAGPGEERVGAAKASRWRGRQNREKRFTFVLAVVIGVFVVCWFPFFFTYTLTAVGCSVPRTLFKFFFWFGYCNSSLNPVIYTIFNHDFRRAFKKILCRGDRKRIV

| SMILES | PAM activity (NE-mediated cAMP potentiation, PAM assay) (α1A-AR [1]) | intrinsic (basal) agonist activity, cAMP (α1A-AR [1]) | intrinsic (basal) agonist activity, inositol phosphate (α1A-AR [2]) | other results |
| --- | --- | --- | --- | --- |
| CC(C)Cc1c(OCC2=NCCN2)ccc(Cl)c1N(C)S(C)(=O)=O.Cl [Cmpd-7, N-(6-Chloro-3-((4,5-dihydro-1H-imidazol-2-yl)methoxy)-2-isobutylphenyl)-N-methylmethanesulfonamide hydrochloride] | abolished PAM activity |  |  |  |
| CC(C)CCc1c(OCC2=NCCN2)cccc1N(C)S(C)(=O)=O.Cl [Cmpd-10, N-(3-((4,5-Dihydro-1H-imidazol-2-yl)methoxy)-2-isopentylphenyl)-N-methylmethanesulfonamide hydrochloride] | retained PAM activity; also recorded: display PAM effect | do not show any basal activity | do not show any basal activity |  |
| CC(C)Cc1c(OCC2=NCCN2)cccc1N(C)S(=O)(=O)C(C)C.Cl [Cmpd-12, N-(3-((4,5-Dihydro-1H-imidazol-2-yl)methoxy)-2-isobutylphenyl)-N-methylpropane-2-sulfonamide hydrochloride] | lost PAM activity; also recorded: display competitive inhibition; also recorded: abolished PAM activity | do not show any basal activity | do not show any basal activity |  |
| CN(c1cccc(OCC2=NCCN2)c1CC(F)(F)F)S(C)(=O)=O.Cl [Cmpd-13, N-(3-((4,5-Dihydro-1H-imidazol-2-yl)methoxy)-2-(2,2,2-trifluoroethyl)phenyl)-N-methylmethanesulfonamide hydrochloride] | lost PAM activity; also recorded: display competitive inhibition; also recorded: abolishes PAM activity | do not show any basal activity | do not show any basal activity |  |
| CN(c1cccc(OCC2=NCCN2)c1CC(C)(C)C)S(C)(=O)=O.Cl [Cmpd-14, N-(3-((4,5-Dihydro-1H-imidazol-2-yl)methoxy)-2-neopentylphenyl)-N-methylmethanesulfonamide hydrochloride] | retained PAM activity; also recorded: display PAM effect | do not show any basal activity | do not show any basal activity |  |
| NC[C@H](O)c1ccc(O)c(O)c1 [NE, norepinephrine] |  |  |  | fraction of receptor in the high affinity state, NE alone (α1A-AR [3]; absence of GTP): 15% |
| Cc1c(OCC2=NCCN2)ccc(Cl)c1NS(C)(=O)=O [RO115-1240, Dabuzalgron, reference compound] | neither RO115-1240 nor cirazoline displayed any PAM characteristics | partial agonists | partial agonists | effect on Epi-mediated inositol phosphate signal at α1A-AR (α1A-AR [2]): effects consistent with a partial or full agonist; effect on NE-mediated inositol phosphate signal at α1A-AR (α1A-AR [2]): effects consistent with a partial or full agonist |
| c1ccc(C2CC2)c(OCC2=NCCN2)c1 [cirazoline, reference compound] | competitive inhibition; also recorded: neither RO115-1240 nor cirazoline displayed any PAM characteristics | partial agonists; also recorded: greater intrinsic activity than RO115-1224 | partial agonists | effect on Epi-mediated cAMP response at α1A-AR (α1A-AR [1]; Epi dose-response, propranolol and rauwolscine present): rightward curve-shifting effects; also recorded: rightward shifting competitive effects; effect on NE-mediated cAMP response at α1A-AR (α1A-AR [1]; NE dose-response, propranolol and rauwolscine present): rightward curve-shifting effects; also recorded: rightward shifting competitive effects; extent of inhibition of 125I-HEAT binding at α1D-AR (α1D-AR): completely inhibited; binding at α1B-AR (125I-HEAT competition) (α1B-AR): completely inhibited; extent of inhibition of 125I-HEAT binding at α1A-AR (α1A-AR [3]): fully inhibit; also recorded: completely inhibited; effect on NE binding at α1A-AR (α1A-AR [3]; compound 10^−5 M, absence of GTP, 125I-HEAT): fully-inhibited the binding of NE; also recorded: completely competes off NE binding; selectivity for α1A-AR against the α1B- and α1D-AR subtypes (α1A-AR [4]): 10-50 fold |
| Cc1ccc(N(CC2=NCCN2)c2cccc(O)c2)cc1 [phentolamine] |  |  |  | extent of inhibition of 125I-HEAT binding at α1A-AR (α1A-AR [3]): fully inhibit; also recorded: completely inhibited |
| COC(=O)[C@H]1[C@H]2C[C@H]3c4[nH]c5ccccc5c4CCN3C[C@H]2CC[C@@H]1O [rauwolscine, reference compound] |  |  |  | extent of inhibition of 3H-RX821002 binding at α2A-AR (α2A-AR): fully inhibited |
